# Laboratory results: US8716281B2, “Pyrimidine compounds that inhibit anaplastic lymphoma kinase” (Amgen Inc., priority 2010, dated 2014)
# pIC50: −log10 of the molar value.
# Molecular target: T1, wild-type human ALK cytoplasmic domain (amino acids 1058-1620) (Homo sapiens, UniProt Q9UM73)
# T1 construct: The cytoplasmic domain (amino acids 1058-1620) of wild-type human ALK; GST (N); made in house; host or cells: SF9 insect cells
# Experiment: ALK Inhibition in Enzyme Assay (Lance TR-FRET)
# Type: biochemical
# Conditions: not given
# Method: ALK Inhibition in Enzyme Assay
# Kinase activity of the purified protein was assessed using a Lance® TR-FRET assay. […] The reaction was allowed to proceed for 90 minutes at room temperature and was then terminated with 20 mM EDTA in 50 mM Tris (pH 7.5), 100 mM NaCl, 0.05% BSA, and 0.1% Tween-20. Phosphorylation of the peptide substrate was detected using the Lance® detection reagents streptavidin-allophycocyanin (SA-APC) and Eu-W1024 anti-phosphotyrosine antibody (PT66) from Perkin Elmer Life Sciences (Waltham, Mass.). The plates were read on a RUBY star plate reader (BMG LABTECH, Cary, N.C.) with an excitation wavelength of 320 nm.
# T1 sequence (Q9UM73 1058-1620): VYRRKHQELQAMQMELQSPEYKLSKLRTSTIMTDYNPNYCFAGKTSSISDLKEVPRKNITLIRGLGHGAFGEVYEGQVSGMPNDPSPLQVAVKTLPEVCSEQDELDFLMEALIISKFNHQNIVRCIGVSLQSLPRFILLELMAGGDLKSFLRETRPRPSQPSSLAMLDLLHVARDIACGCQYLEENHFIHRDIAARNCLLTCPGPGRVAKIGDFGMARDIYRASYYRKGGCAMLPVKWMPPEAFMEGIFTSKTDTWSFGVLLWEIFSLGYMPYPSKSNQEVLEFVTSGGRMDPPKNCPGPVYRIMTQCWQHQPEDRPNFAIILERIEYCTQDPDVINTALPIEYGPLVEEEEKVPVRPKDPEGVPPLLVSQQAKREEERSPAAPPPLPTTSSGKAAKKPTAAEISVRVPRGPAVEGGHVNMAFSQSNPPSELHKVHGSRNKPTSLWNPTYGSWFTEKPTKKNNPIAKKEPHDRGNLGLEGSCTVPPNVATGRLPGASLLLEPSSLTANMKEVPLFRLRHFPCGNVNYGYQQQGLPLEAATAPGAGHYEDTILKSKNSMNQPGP
row,pIC50,Compound
1,5.30 to 6.00,"COc1cc(Nc2nccc(N3CCC[C@H](C(=O)NCc4ccc([N+](=O)[O-])cc4)C3)n2)cc(OC)c1OC [Example 71, (S)-N-(4-nitrobenzyl)-1-(2-((3,4,5-trimethoxyphenyl)amino)-4-pyrimidinyl)-3-piperidinecarboxamide]"

# Same assay, conditions: 2 nM enzyme, ATP at 40 μM (Km apparent), 90 minutes, mean of three replicates; read-out: ALK IC50
row,Compound,pIC50
1,"COc1cc(Nc2nccc(N3CCC[C@H](C(=O)NC4CCc5ccccc54)C3)n2)cc(OC)c1OC (stereo partly drawn) [Example 39, (S)-N-(2,3-dihydro-1H-inden-1-yl)-1-(2-((3,4,5-trimethoxyphenyl)amino)-4-pyrimidinyl)-3-pipcridinecarboxamide]",5.30 to 6.00
2,"COc1cc(Nc2nccc(N3CCC[C@H](C(=O)NCc4ccc(N(C)C)cc4)C3)n2)cc(OC)c1OC [Example 42, (S)-N-(4-(dimethylamino)benzyl)-1-(2-((3,4,5-trimethoxyphenyl)amino)-4-pyrimidinyl)-3-piperidinecarboxamide]",5.30 to 6.00
3,"COc1cc(Nc2nccc(N3CCC[C@H](C(=O)NC(C#N)c4ccccc4)C3)n2)cc(OC)c1OC (stereo partly drawn) [Example 43, (S)-N-(cyano(phenyl)methyl)-1-(2-((3,4,5-trimethoxyphenyl)amino)-4-pyrimidinyl)-3-piperidinecarboxamide]",6.00 to 7.00
4,"COc1cc(Nc2nccc(N3CCC[C@H](C(=O)NCc4ccc5c(c4)CCO5)C3)n2)cc(OC)c1OC [Example 44, (S)-N-(2,3-dihydro-1-bcnzofuran-5-ylmethyl)-1-(2-((3,4,5-trimethoxyphenyl)amino)-4-pyrimidinyl)-3-piperidinecarboxamide]",6.00 to 7.00
5,"COc1cc(Nc2nccc(N3CCC[C@H](C(=O)NC(C)c4ccc5[nH]ccc5c4)C3)n2)cc(OC)c1OC (stereo partly drawn) [Example 45, (S)-N-(1-(1H-indol-5-yl)ethyl)-1-(2-((3,4,5-trimethoxyphenyl)amino)-4-pyrimidinyl)-3-piperidinecarboxamide]",6.00 to 7.00
6,"COc1cc(Nc2nccc(N3CCC[C@H](C(=O)NCc4ccc(-n5cccn5)cc4)C3)n2)cc(OC)c1OC [Example 46, (S)-N-(4-(1H-pyrazol-1-yl)benzyl)-1-(2-((3,4,5-trimethoxyphenyl)amino)-4-pyrimidinyl)-3-piperidinecarboxamide]",5.30 to 6.00
7,"COc1cc(Nc2nccc(N3CCC[C@H](C(=O)NCc4ccc(Br)cc4)C3)n2)cc(OC)c1OC [Example 47, (S)-N-(4-bromobenzyl)-1-(2-((3,4,5-trimethoxyphenyl)amino)-4-pyrimidinyl)-3-piperidinecarboxamide]",7.00 to 7.30
8,"COc1cccc([C@@H](C)NC(=O)[C@H]2CCCN(c3ccnc(Nc4cc(OC)c(OC)c(OC)c4)n3)C2)c1 [Example 48, (S)-N-((R)-1-(3-methoxyphenyl)ethyl)-1-(2-((3,4,5-trimethoxyphenyl)amino)-4-pyrimidinyl)-3-piperidinecarboxamide]",5.30 to 6.00
9,"COc1cc(Nc2nccc(N3CCC[C@H](C(=O)NCc4ccccc4Br)C3)n2)cc(OC)c1OC [Example 49, (S)-N-(2-bromobenzyl)-1-(2-((3,4,5-trimethoxyphenyl)amino)-4-pyrimidinyl)-3-piperidinecarboxamide]",5.30 to 6.00
10,"COc1cc(Nc2nccc(N3CCC[C@H](C(=O)NC(C)c4ccc(F)cc4)C3)n2)cc(OC)c1OC (stereo partly drawn) [Example 51, (S)-N-(1-(4-fluorophenyl)ethyl)-1-(2-((3,4,5-trimethoxyphenyl)amino)-4-pyrimidinyl)-3-piperidinecarboxamide]",6.00 to 7.00
11,"COc1cc(Nc2nccc(N3CCC[C@H](C(=O)NC(C)c4ccc(O)cc4)C3)n2)cc(OC)c1OC (stereo partly drawn) [Example 53, (S)-N-(1-(4-hydroxyphenyl)ethyl)-1-(2-((3,4,5-trimethoxyphenyl)amino)-4-pyrimidinyl)-3-piperidinecarboxamide]",5.00 to 5.30
12,"COc1cc(Nc2nccc(N3CCC[C@H](C(=O)NC(C)(C)c4ccccc4)C3)n2)cc(OC)c1OC [Example 54, (S)-N-(1-methyl-1-phenylethyl)-1-(2-((3,4,5-trimethoxyphenyl)amino)-4-pyrimidinyl)-3-piperidinecarboxamide]",5.30 to 6.00
13,"COc1cc(Nc2nccc(N3CCC[C@H](C(=O)NC(C)c4ccc(C)cc4)C3)n2)cc(OC)c1OC (stereo partly drawn) [Example 55, (S)-N-(1-(4-methylphenyl)ethyl)-1-(2-((3,4,5-trimethoxyphenyl)amino)-4-pyrimidinyl)-3-piperidinecarboxamide]",6.00 to 7.00
14,"COc1cc(Nc2nccc(N3CCC[C@H](C(=O)NCc4ccc(Br)cc4F)C3)n2)cc(OC)c1OC [Example 56, (S)-N-(4-bromo-2-fluorobenzyl)-1-(2-((3,4,5-trimethoxyphenyl)amino)-4-pyrimidinyl)-3-piperidinecarboxamide]",> 7.30

# The remaining lines, values ahead:
row,pIC50,Compound
1,7.00 to 7.30,"COc1cc(Nc2nccc(N3CCC[C@H](C(=O)NCc4ccc(F)cc4F)C3)n2)cc(OC)c1OC [Example 57, (S)-N-(2,4-difluorobenzyl)-1-(2-((3,4,5-trimethoxyphenyl)amino)-4-pyrimidinyl)-3-piperidinecarboxamide]"
2,> 7.30,"COc1cc(Nc2nccc(N3CCC[C@H](C(=O)NCc4cc(Br)ccc4F)C3)n2)cc(OC)c1OC [Example 58, (S)-N-(5-bromo-2-fluorobenzyl)-1-(2-((3,4,5-trimethoxyphenyl)amino)-4-pyrimidinyl)-3-piperidinecarboxamide]"
3,5.30 to 6.00,"COc1cc(Nc2nccc(N3CCC[C@H](C(=O)NCc4nc(C)cs4)C3)n2)cc(OC)c1OC [Example 59, (S)-N-((4-methyl-1,3-thiazol-2-yl)methyl)-1-(2-((3,4,5-trimethoxyphenyl)amino)-4-pyrimidinyl)-3-piperidinecarboxamide]"
4,7.00 to 7.30,"COc1cc(Nc2nccc(N3CCC[C@H](C(=O)NCCc4ccc(Br)cc4)C3)n2)cc(OC)c1OC [Example 60, (S)-N-(2-(4-bromophenyl)ethyl)-1-(2-((3,4,5-trimethoxyphenyl)amino)-4-pyrimidinyl)-3-piperidinecarboxamide]"
5,5.00 to 5.30,"COc1cc(Nc2nccc(N3CCC[C@H](C(=O)NCCc4cn5ccccc5n4)C3)n2)cc(OC)c1OC [Example 61, (S)-N-(2-imidazo[1,2-a]pyridin-2-ylethyl)-1-(2-((3,4,5-trimethoxyphenyl)amino)-4-pyrimidinyl)-3-piperidinecarboxamide]"
6,6.00 to 7.00,"COc1cc(Nc2nccc(N3CCC[C@H](C(=O)NCCOc4ccccc4)C3)n2)cc(OC)c1OC [Example 62, (S)-N-(2-phenoxyethyl)-1-(2-((3,4,5-trimethoxyphenyl)amino)-4-pyrimidinyl)-3-piperidinecarboxamide]"
7,6.00 to 7.00,"COc1cc(Nc2nccc(N3CCC[C@H](C(=O)NCc4ccc5ccsc5c4)C3)n2)cc(OC)c1OC [Example 64, (S)-N-(1-benzothiophen-6-ylmethyl)-1-(2-((3,4,5-trimethoxyphenyl)amino)-4-pyrimidinyl)-3-piperidinecarboxamide]"
8,6.00 to 7.00,"COc1cc(Nc2nccc(N3CCC[C@H](C(=O)NCc4ccc(Cl)c(Cl)c4)C3)n2)cc(OC)c1OC [Example 65, (S)-N-(3,4-dichlorobenzyl)-1-(2-((3,4,5-trimethoxyphenyl)amino)-4-pyrimidinyl)-3-piperidinecarboxamide]"
9,5.30 to 6.00,"COc1ccc(CNC(=O)[C@H]2CCCN(c3ccnc(Nc4cc(OC)c(OC)c(OC)c4)n3)C2)cc1OC [Example 66, (S)-N-(3,4-dimethoxybenzyl)-1-(2-((3,4,5-trimethoxyphenyl)amino)-4-pyrimidinyl)-3-piperidinecarboxamide]"
10,6.00 to 7.00,"COc1cc(Nc2nccc(N3CCC[C@H](C(=O)NCc4ccc(F)c(F)c4)C3)n2)cc(OC)c1OC [Example 67, (S)-N-(3,4-difluorobenzyl)-1-(2-((3,4,5-trimethoxyphenyl)amino)-4-pyrimidinyl)-3-piperidinecarboxamide]"
11,6.00 to 7.00,"COc1cc(Nc2nccc(N3CCC[C@H](C(=O)NCc4ccc(F)c(Cl)c4)C3)n2)cc(OC)c1OC [Example 68, (S)-N-(3-chloro-4-fluorobenzyl)-1-(2-((3,4,5-trimethoxyphenyl)amino)-4-pyrimidinyl)-3-pipcridinecarboxamide]"
12,> 7.30,"COc1cc(Nc2nccc(N3CCC[C@H](C(=O)NCc4ccc(C(C)(C)C)cc4)C3)n2)cc(OC)c1OC [Example 70, (S)-N-(4-tert-butylbenzyl)-1-(2-((3,4,5-trimethoxyphenyl)amino)-4-pyrimidinyl)-3-piperidinecarboxamide]"
13,6.00 to 7.00,"COc1cc(Nc2nccc(N3CCC[C@H](C(=O)NCc4ccc(Oc5ccc(F)cc5)cc4)C3)n2)cc(OC)c1OC [Example 72, (S)-N-(4-(4-fluorophenoxy)benzyl)-1-(2-((3,4,5-trimethoxyphenyl)amino)-4-pyrimidinyl)-3-piperidinecarboxamide]"
14,5.30 to 6.00,"COc1cc(Nc2nccc(N3CCC[C@H](C(=O)NCc4ccc5c(c4)CCCN5C)C3)n2)cc(OC)c1OC [Example 73, (S)-N-((1-methyl-1,2,3,4-tetrahydro-6-quinolinyl)methyl)-1-(2-((3,4,5-trimethoxyphenyl)amino)-4-pyrimidinyl)-3-piperidinecarboxamide]"
15,6.00 to 7.00,"COc1cc(Nc2nccc(N3CCC[C@H](C(=O)NCc4ccc(C)c(Cl)c4)C3)n2)cc(OC)c1OC [Example 74, (S)-N-(3-chloro-4-methylbenzyl)-1-(2-((3,4,5-trimethoxyphenyl)amino)-4-pyrimidinyl)-3-piperidinecarboxamide]"
16,> 7.30,"COc1cc(Nc2nccc(N3CCC[C@H](C(=O)NCc4ccc(OC(F)F)cc4)C3)n2)cc(OC)c1OC [Example 75, (S)-N-(4-(difluoromethoxy)benzyl)-1-(2-((3,4,5-trimethoxyphenyl)amino)-4-pyrimidinyl)-3-piperidinecarboxamide]"
